From patent US12122761B2, “2-azaspiro[3.4]octane derivatives as M4 agonists” (NOVARTIS AG, priority 2019, dated 2024) come the findings set out here.

SMILES strings stand for the structures.

Assay [1] deals with T1, human cloned CHRM4 receptor (M4_CHO cells) (Homo sapiens, UniProt P08173).
T1 construct: expressed in transfected cells; host or cells: CHO-K1
T1 sequence (P08173 1-479): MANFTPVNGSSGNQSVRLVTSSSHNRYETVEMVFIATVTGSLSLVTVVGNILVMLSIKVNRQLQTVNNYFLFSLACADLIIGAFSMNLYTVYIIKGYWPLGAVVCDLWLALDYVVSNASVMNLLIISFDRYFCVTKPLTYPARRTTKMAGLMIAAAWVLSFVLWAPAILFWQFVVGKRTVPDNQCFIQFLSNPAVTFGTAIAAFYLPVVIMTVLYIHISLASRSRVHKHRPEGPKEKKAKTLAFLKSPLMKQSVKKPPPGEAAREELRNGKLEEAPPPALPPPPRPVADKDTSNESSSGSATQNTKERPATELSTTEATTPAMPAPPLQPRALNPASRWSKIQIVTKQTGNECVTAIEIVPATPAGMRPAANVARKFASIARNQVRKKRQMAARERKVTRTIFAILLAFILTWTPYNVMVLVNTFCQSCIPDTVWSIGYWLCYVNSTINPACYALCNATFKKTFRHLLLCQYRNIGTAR
Kind of assay: CHRM4 Ca++ Flux Assay (agonist mode, FDSS 7000EX). To be noted: for Emax / M4 FDSS PA: Percent Activity; for Emax: read-out: M4 FDSS PA; for EC50: geometric mean if tested more than once, read-out: M4 FDSS EC50. It is filed as cell-based. As to the method: (§1) The above examples were characterized by measuring the intracellular mobilization of Ca++ ions caused by signaling events mediated by the receptor. The Intra-cellular Calcium flux levels were captured by the highly sensitive Ca++ indicator, Calcium Assay Kit (BD Biosciences, Catalog Number 640178). The fluorescent activity from all receptors were monitored by the fluorescent imager, FDSS 7000EX (Hamamatsu) over a span of 3 minutes.
(§2) CHO-K1 cells stably expressing the human cloned CHRM4 receptor (M4_CHO cells) were grown and maintained in a monolayer culture with F12/HAM (Life Technologies) supplemented with 10% Fetal Bovine Serum, 1× Pen-Strep, and 0.4 mg/mL Geneticin in a humidified atmosphere (5% CO2) at 37° C. The cultures were grown to 80-90% confluency in T150 flasks (Corning) and washed with 1×DPBS then lifted with 0.05% Trypsin (Life Technologies). The cells were harvested in growth media then spun (1K rpm, 3 minutes) and cryopreserved using Recovery Cell Culture Freezing Media (Gibco Technologies). Cells were stored in liquid nitrogen and thawed a day before the assay.
Prior to the day of the assay, stable M4_CHO cells were thawed and plated on 384 well black walled clear bottom TC treated plates (Greiner Cat #781091) at 12K cells/well using F12/HAM Media supplemented with 10% FBS (Life Technologies) and kept overnight in a humidified atmosphere (5% CO2) at 37° C. The next day, cells were loaded with […] Ca^++ dye (BD Biosciences) using Loading Buffer (HBSS +Ca/+Mg, 20 mM HEPES, 2.5 mM Probenecid) and placed back in cell incubator for a minimum of 1 hour. After incubation, the dye was replaced with 45 μL Assay Buffer (HBSS −Ca/−Mg, 20 mM HEPES, 2.5 mM Probenecid) supplemented with 20 μM ATP (Sigma Aldrich) and kept at room temperature in the dark for 60 minutes before running on a cell imager. The FDSS 7000EX (Hamamatsu) was used to capture Ca^++ traces for a span of 3 minutes from cells treated with 11 point dose of compound in triplicate in order to generate dose response curves in agonist mode. All compounds were serially diluted in DMSO then prepared in Assay Buffer for Ca^++ flux studies. The dose response curves were generated from the average of triplicate wells obtained from each data point and used a non-linear regression of four parameter dose response algorithm. The Percent Activity (PA) was measured to EC100 of Carbachol.

Assay [2] addresses T2, human cloned CHRM2 receptor (M2_CHO cells) (Homo sapiens, UniProt P08172).
T2 construct: expressed in transfected cells; host or cells: CHO-K1
T2 sequence (P08172 1-466): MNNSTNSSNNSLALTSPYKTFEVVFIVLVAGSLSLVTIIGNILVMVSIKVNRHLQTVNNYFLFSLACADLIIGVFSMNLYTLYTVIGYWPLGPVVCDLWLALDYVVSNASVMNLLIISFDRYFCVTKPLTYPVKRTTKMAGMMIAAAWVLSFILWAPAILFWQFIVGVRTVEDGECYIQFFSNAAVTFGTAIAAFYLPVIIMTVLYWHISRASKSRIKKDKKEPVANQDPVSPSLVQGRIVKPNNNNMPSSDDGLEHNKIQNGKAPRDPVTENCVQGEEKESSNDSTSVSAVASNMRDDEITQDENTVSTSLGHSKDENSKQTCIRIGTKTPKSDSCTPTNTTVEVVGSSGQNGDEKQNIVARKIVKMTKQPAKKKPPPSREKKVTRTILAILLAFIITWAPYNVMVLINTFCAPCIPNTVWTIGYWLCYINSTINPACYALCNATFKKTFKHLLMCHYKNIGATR
Description: CHRM2 Ca++ Flux Assay (agonist mode, FDSS 7000EX). It is filed as cell-based. The note with it: Percent Activity measured to EC100 of Carbachol; for Emax: read-out: M2 FDSS PA. As to the method:
as §1
as §2, with “cloned CHRM2” for “cloned CHRM4”, “receptor (M2_CHO” for “receptor (M4_CHO”, “to 80-9 0%” for “to 80-90%”, “1×DPBS and” for “1×DPBS then”, “were” for “were harvested in growth media”, “and frozen” for “and cryopreserved”
Prior to the day of the assay, stable M2 CHO cells were thawed and plated on Greiner 384 well TC treated plate at a density of 12K cells/well and kept overnight in a humidified atmosphere (5% CO2) at 37° C. The following day, the cells were loaded with Ca^++ dye (BD Biosciences) using Loading Buffer (HBSS +Ca/+Mg, 20 mM HEPES, 2.5 mM Probenecid) and placed back in cell incubator for a minimum of 1 hour and maximum of 2 hours. After incubation, the dye was replaced with Assay Buffer (HBSS −Ca/−Mg, 20 mM HEPES, 2.5 mM Probenecid) supplemented with 20 μM ATP (Sigma Aldrich) and kept at room temperature for 60 minutes prior before running on cell imager. The FDSS 7000EX (Hamamatsu) was used to acquire Ca^++ traces from cells in response to compound treatment and the data was used to generate dose response curves in agonist mode. All compounds were serially diluted in DMSO then prepared in Assay Buffer for Ca^++ flux studies. The dose response curves were generated from the average of triplicate wells obtained from each data point and used a non-linear regression of four parameter dose response algorithm. The Percent Activity (PA) was measured to EC100 of Carbachol.

On to `COc1ccccc1C1CCN([C@@H]2CCC3(C2)CN(c2nccnc2C)C3)CC1` [Example 5J, (R)-6-(4-(2-methoxyphenyl)piperidin-1-yl)-2-(3-methylpyrazin-2-yl)-2-azaspiro[3.4]octane], for which, in assay [1], the Emax amounted to 60% and the concentration giving a half-maximal response (EC50) was determined as 9 nM. In addition, the Emax in assay [2] is 0%.
Take `O=C(N1CC2(CC[C@@H](N3CCC(c4cc(F)ccc4C4(O)CCOCC4)CC3)C2)C1)C1(F)CC1` (single isomer, unassigned) [Example 9I, (R)-(6-(4-(5-fluoro-2-(4-hydroxytetrahydro-2H-pyran-4-yl)phenyl)piperidin-1-yl)-2-azaspiro[3.4]octan-2-yl)(1-fluorocyclopropyl)methanone or (S)-(6-(4-(5-fluoro-2-(4-hydroxytetrahydro-2H-pyran-4-yl)phenyl)piperidin-1-yl)-2-azaspiro[3.4]octan-2-yl)(1-fluorocyclopropyl)methanone]: in assay [1], the “M4 FDSS PA” value was 17% and the half-maximal effective concentration (EC50) was 15 nM. Further, the “M2 FDSS PA” value in assay [2] came out at 0%.
On the same counts, the results for `O=C(N1CC2(CC[C@@H](N3CCC(c4ccccc4OCc4ncccn4)CC3)C2)C1)C1(F)CC1` (single isomer, unassigned) [Example 7M, (R)-(1-fluorocyclopropyl)(6-(4-(2-(pyrimidin-2-ylmethoxy)phenyl)piperidin-1-yl)-2-azaspiro[3.4]octan-2-yl)methanone or (S)-(1-fluorocyclopropyl)(6-(4-(2-(pyrimidin-2-ylmethoxy)phenyl)piperidin-1-yl)-2-azaspiro[3.4]octan-2-yl)methanone] are 50%, 1 nM and 0%.
The corresponding values for `Fc1cncc(N2CC3(CC[C@@H](N4CCC(c5cc(F)ccc5OC5CCOCC5)CC4)C3)C2)c1` (single isomer, unassigned) [Example 10A, (R)-6-(4-(5-fluoro-2-((tetrahydro-2H-pyran-4-yl)oxy)phenyl)piperidin-1-yl)-2-(5-fluoropyridin-3-yl)-2-azaspiro[3.4]octane or (S)-6-(4-(5-fluoro-2-((tetrahydro-2H-pyran-4-yl)oxy)phenyl)piperidin-1-yl)-2-(5-fluoropyridin-3-yl)-2-azaspiro[3.4]octane] are 60%, 5 nM and 42%.
As to `c1ccc(C2CCN([C@@H]3CCC4(C3)CN(c3ncncn3)C4)CC2)c(OCC2CCOCC2)c1` [Example 5Q, (R)-6-(4-(2-((tetrahydro-2H-pyran-4-yl)methoxy)phenyl)piperidin-1-yl)-2-(1,3,5-triazin-2-yl)-2-azaspiro[3.4]octane], the results for the Emax in assay [1] and in assay [2] were 54% and 0%, respectively. Further, the EC50 in assay [1] was 21 nM.
Regarding `O=C(N1CC2(CC[C@@H](N3CCC(c4cc(F)ccc4OC4CC5(COC5)C4)CC3)C2)C1)C1(F)CC1` (single isomer, unassigned) [Example 11B, (R)-(6-(4-(2-((2-oxaspiro[3.3]heptan-6-yl)oxy)-5-fluorophenyl)piperidin-1-yl)-2-azaspiro[3.4]octan-2-yl)(1-fluorocyclopropyl)methanone or (S)-(6-(4-(2-((2-oxaspiro[3.3]heptan-6-yl)oxy)-5-fluorophenyl)piperidin-1-yl)-2-azaspiro[3.4]octan-2-yl)(1-fluorocyclopropyl)methanone], in assay [1], the “M4 FDSS PA” value is on record as 51% and the EC50 was determined as 2 nM. The “M2 FDSS PA” value in assay [2] was 0%.
The corresponding values for `O=C(N1CC2(CC[C@@H](N3CCC(c4cc(F)ccc4C4CCOCC4)CC3)C2)C1)C1(F)CC1` (single isomer, unassigned) [Example 9L, (R)-(6-(4-(5-fluoro-2-(tetrahydro-2H-pyran-4-yl)phenyl)piperidin-1-yl)-2-azaspiro[3.4]octan-2-yl)(1-fluorocyclopropyl)methanone or (S)-(6-(4-(5-fluoro-2-(tetrahydro-2H-pyran-4-yl)phenyl)piperidin-1-yl)-2-azaspiro[3.4]octan-2-yl)(1-fluorocyclopropyl)methanone] are 49%, 26 nM and 0%.
On to `COc1ccccc1C1CCN([C@@H]2CCC3(C2)CN(c2cccnc2)C3)CC1` [Example 5K, (R)-6-(4-(2-methoxyphenyl)piperidin-1-yl)-2-(pyridin-3-yl)-2-azaspiro[3.4]octane], for which, in assay [1], the Emax was determined as 64% and the EC50 is 9 nM. Also, in assay [2], the Emax stood at 18%.
On to `COc1ccc(Cl)cc1C1CCN([C@H]2CCC3(C2)CN(C(=O)C2(F)CC2)C3)CC1` (single isomer, unassigned) [Example 8A, (S)-(6-(4-(5-chloro-2-methoxyphenyl)piperidin-1-yl)-2-azaspiro[3.4]octan-2-yl)(1-fluorocyclopropyl)methanone or (R)-(6-(4-(5-chloro-2-methoxyphenyl)piperidin-1-yl)-2-azaspiro[3.4]octan-2-yl)(1-fluorocyclopropyl)methanone], for which, in assay [1], the “M4 FDSS PA” value was 43% and the EC50 is 36 nM. Further, the “M2 FDSS PA” value in assay [2] came out at 0%.
The corresponding values for `O=C(N1CC2(CC[C@@H](N3CCC(c4ccccc4OCC4CCOCC4)CC3)C2)C1)C1(F)CC1` (single isomer, unassigned) [Example 7Q, (R)-(1-fluorocyclopropyl)(6-(4-(2-((tetrahydro-2H-pyran-4-yl)methoxy)phenyl)piperidin-1-yl)-2-azaspiro[3.4]octan-2-yl)methanone or (S)-(1-fluorocyclopropyl)(6-(4-(2-((tetrahydro-2H-pyran-4-yl)methoxy)phenyl)piperidin-1-yl)-2-azaspiro[3.4]octan-2-yl)methanone] are 48%, 3 nM and 0%.
